Assay results reported in ChEMBL document CHEMBL4325871 (Eur J Med Chem, 2019).

Experiments:
[1] = molecular target: Tyrosine-protein kinase receptor UFO (Homo sapiens) (UniProt P30530); assay: Inhibition of human AXL assessed as residual activity at 1 uM using EAIYAAPFAKKK as substrate by [gamma-33P]-ATP assay relative to control
[2] = molecular target: Dual specificity mitogen-activated protein kinase kinase 1 (Homo sapiens) (UniProt Q02750); assay: Inhibition of human MEK1 assessed as residual activity at 1 uM using ERK2 as substrate by [gamma-33P]-ATP assay relative to control
[3] = molecular target: Calcium/calmodulin-dependent protein kinase type 1B (Homo sapiens) (UniProt Q6P2M8); assay: Inhibition of human CAMK1B assessed as residual activity at 1 uM using KKALRRQETVDAL as substrate by [gamma-33P]-ATP assay relative to control
[4] = molecular target: Serine/threonine-protein kinase Nek9 (Homo sapiens) (UniProt Q8TD19); assay: Inhibition of human NEK9 assessed as residual activity at 1 uM using casein as substrate by [gamma-33P]-ATP assay relative to control
Chain of Serine/threonine-protein kinase Nek9 (Homo sapiens) (Q8TD19 whole entry): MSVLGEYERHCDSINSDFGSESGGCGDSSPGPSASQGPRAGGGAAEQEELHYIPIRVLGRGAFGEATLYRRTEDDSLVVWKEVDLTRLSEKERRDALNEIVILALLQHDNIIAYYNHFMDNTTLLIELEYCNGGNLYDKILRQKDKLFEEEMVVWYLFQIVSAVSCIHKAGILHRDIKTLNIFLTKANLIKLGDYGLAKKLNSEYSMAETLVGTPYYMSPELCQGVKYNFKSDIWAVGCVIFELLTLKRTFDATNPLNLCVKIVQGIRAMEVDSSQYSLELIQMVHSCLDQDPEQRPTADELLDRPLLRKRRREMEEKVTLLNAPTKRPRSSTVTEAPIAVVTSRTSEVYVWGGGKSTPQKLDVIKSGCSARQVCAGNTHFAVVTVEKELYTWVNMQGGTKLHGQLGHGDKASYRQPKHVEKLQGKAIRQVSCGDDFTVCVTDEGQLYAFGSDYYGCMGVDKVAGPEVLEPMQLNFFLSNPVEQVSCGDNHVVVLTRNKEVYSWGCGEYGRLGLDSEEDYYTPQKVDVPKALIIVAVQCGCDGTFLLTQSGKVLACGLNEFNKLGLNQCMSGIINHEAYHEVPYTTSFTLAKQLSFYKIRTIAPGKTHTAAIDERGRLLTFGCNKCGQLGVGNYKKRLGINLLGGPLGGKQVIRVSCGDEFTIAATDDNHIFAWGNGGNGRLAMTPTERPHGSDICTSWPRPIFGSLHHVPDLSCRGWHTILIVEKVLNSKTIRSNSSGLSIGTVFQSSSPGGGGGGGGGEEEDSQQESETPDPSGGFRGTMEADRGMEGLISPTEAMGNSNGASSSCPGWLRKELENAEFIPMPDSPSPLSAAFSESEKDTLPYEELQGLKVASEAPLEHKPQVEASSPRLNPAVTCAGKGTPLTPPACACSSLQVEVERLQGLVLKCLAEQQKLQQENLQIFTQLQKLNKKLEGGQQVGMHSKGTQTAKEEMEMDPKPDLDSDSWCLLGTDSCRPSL

[5] = molecular target: Platelet-derived growth factor receptor beta (Homo sapiens) (UniProt P09619); assay: Inhibition of human PDGFRbeta assessed as residual activity at 1 uM using poly[Glu:Tyr] (4:1) as substrate by [gamma-33P]-ATP assay relative to control
Chain of Platelet-derived growth factor receptor beta (Homo sapiens) (P09619 whole entry): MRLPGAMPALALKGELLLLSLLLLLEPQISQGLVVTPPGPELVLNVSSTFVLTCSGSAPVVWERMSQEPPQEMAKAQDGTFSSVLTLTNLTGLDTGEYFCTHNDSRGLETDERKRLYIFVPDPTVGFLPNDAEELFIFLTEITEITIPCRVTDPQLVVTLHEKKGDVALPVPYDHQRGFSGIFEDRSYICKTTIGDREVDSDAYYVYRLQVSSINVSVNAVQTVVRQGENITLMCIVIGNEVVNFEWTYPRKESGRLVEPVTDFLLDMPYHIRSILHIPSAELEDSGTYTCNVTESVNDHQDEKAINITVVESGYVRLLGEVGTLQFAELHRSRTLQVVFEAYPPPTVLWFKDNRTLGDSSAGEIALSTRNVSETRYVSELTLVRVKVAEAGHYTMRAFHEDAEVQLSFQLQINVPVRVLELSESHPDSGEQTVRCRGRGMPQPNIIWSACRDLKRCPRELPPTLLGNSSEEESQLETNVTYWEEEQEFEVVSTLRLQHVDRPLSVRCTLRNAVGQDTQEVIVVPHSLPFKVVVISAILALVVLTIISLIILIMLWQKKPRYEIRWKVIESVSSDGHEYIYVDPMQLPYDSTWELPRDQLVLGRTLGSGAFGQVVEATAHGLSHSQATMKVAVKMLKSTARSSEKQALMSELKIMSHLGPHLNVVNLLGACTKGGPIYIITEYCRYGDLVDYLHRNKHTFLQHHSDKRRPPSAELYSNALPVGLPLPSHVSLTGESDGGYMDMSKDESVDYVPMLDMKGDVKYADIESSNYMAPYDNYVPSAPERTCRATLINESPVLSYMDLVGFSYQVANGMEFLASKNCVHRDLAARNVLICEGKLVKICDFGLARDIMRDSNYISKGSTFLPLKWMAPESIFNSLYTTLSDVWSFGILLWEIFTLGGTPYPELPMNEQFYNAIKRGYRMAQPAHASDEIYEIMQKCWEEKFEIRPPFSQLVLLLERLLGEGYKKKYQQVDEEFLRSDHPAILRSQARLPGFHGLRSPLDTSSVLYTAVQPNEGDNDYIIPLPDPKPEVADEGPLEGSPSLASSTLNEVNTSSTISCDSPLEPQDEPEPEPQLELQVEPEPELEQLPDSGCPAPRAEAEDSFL

[6] = molecular target: T1, Serine/threonine-protein kinase Chk1 (Homo sapiens) (UniProt O14757); assay: Inhibition of CHK1 phosphorylation at S296 residue in human FOLFOX-resistant HCT116 cells after 24 hrs by Western blot analysis
T1 sequence (whole entry): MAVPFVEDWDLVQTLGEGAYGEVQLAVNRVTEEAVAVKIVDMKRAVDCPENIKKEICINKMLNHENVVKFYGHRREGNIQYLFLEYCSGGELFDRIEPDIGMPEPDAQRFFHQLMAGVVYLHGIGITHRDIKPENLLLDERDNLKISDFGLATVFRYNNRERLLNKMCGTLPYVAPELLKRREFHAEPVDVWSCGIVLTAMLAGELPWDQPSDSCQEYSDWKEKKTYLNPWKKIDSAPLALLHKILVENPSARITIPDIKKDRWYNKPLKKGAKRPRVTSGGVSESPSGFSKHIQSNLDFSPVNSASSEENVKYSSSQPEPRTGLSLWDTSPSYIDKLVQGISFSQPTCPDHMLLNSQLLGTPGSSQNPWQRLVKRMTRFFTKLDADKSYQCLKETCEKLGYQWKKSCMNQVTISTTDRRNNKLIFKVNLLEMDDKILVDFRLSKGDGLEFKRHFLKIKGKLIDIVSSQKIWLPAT

[7] = molecular target: Mitogen-activated protein kinase kinase kinase 19 (Homo sapiens) (UniProt Q56UN5); assay: Inhibition of human YSK4 assessed as residual activity at 1 uM using MBP as substrate by [gamma-33P]-ATP assay relative to control
[8] = molecular target: Rhodopsin kinase GRK1 (Homo sapiens) (UniProt Q15835); assay: Inhibition of human GRK1 assessed as residual activity at 1 uM using casein as substrate by [gamma-33P]-ATP assay relative to control
Chain of Rhodopsin kinase GRK1 (Homo sapiens) (Q15835 whole entry): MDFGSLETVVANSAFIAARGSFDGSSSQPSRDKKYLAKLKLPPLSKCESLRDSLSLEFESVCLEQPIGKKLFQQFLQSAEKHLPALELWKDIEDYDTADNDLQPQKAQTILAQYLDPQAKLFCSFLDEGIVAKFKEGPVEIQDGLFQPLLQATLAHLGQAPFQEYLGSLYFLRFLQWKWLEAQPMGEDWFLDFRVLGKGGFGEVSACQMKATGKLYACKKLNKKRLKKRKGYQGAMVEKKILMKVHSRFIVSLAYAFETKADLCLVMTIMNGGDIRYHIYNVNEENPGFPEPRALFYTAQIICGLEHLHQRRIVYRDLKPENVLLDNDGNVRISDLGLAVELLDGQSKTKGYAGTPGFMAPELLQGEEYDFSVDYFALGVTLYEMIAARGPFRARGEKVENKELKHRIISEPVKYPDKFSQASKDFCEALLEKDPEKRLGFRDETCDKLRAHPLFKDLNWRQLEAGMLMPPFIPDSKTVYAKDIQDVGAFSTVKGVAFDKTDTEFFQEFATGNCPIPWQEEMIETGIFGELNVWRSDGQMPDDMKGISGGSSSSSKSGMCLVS

[9] = molecular target: Casein kinase II subunit alpha' (Homo sapiens) (UniProt P19784); assay: Inhibition of human CK2A2 assessed as residual activity at 1 uM using RRRDDDSDDD as substrate by [gamma-33P]-ATP assay relative to control
[10] = molecular target: Serine/threonine-protein kinase Nek3 (Homo sapiens) (UniProt P51956); assay: Inhibition of human NEK3 assessed as residual activity at 1 uM using MBP as substrate by [gamma-33P]-ATP assay relative to control
[11] = molecular target: Serine/threonine-protein kinase TAO1 (Homo sapiens) (UniProt Q7L7X3); assay: Inhibition of human TAOK1 assessed as residual activity at 1 uM using MBP as substrate by [gamma-33P]-ATP assay relative to control
[12] = molecular target: Angiopoietin-1 receptor (Homo sapiens) (UniProt Q02763); assay: Inhibition of human TIE2 assessed as residual activity at 1 uM using poly[Glu:Tyr] (4:1) as substrate by [gamma-33P]-ATP assay relative to control
[13] = molecular target: T1, Serine/threonine-protein kinase Chk1 (Homo sapiens); assay: Inhibition of CHK1 phosphorylation at S296 residue in human FOLFOX-resistant HT-29 cells after 24 hrs by Western blot analysis
[14] = molecular target: Myosin light chain kinase 2, skeletal/cardiac muscle (Homo sapiens) (UniProt Q9H1R3); assay: Inhibition of human MLCK2 assessed as residual activity at 1 uM using KKLNRTLSFAEPG as substrate by [gamma-33P]-ATP assay relative to control
[15] = molecular target: Serine/threonine-protein kinase DCLK2 (Homo sapiens) (UniProt Q8N568); assay: Inhibition of human DCAMKL2 assessed as residual activity at 1 uM using KKLNRTLSFAEPG as substrate by [gamma-33P]-ATP assay relative to control
[16] = molecular target: Ephrin type-B receptor 3 (Homo sapiens) (UniProt P54753); assay: Inhibition of human EPHB3 assessed as residual activity at 1 uM using poly[Glu:Tyr] (4:1) as substrate by [gamma-33P]-ATP assay relative to control
Chain of Ephrin type-B receptor 3 (Homo sapiens) (P54753 whole entry): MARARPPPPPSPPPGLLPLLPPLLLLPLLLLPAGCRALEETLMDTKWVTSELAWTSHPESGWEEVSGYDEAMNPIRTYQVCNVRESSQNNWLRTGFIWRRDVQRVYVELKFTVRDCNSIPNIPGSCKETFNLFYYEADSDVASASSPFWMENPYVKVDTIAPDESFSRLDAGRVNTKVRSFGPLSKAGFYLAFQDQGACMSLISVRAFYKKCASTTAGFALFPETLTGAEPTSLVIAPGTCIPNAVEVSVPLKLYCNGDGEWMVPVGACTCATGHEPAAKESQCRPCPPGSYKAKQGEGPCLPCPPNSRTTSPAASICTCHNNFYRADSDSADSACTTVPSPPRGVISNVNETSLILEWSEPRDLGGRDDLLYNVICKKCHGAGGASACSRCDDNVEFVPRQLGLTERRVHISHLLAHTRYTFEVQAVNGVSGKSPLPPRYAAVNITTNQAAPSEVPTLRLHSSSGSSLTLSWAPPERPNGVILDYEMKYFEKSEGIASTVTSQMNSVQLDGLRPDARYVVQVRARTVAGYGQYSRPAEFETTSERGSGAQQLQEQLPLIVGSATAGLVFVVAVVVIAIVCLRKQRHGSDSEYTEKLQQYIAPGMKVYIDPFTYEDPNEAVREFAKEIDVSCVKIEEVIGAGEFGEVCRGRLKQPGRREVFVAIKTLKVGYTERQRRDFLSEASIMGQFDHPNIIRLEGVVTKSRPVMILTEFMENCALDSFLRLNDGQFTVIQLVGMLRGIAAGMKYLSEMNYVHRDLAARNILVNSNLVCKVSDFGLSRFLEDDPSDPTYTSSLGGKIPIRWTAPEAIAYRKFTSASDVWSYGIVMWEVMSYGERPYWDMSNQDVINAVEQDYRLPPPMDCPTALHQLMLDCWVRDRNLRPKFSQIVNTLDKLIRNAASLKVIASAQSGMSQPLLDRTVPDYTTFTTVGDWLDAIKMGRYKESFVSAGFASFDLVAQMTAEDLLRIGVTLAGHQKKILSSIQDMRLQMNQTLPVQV

[17] = molecular target: Serine/threonine-protein kinase WNK1 (Homo sapiens) (UniProt Q9H4A3); assay: Inhibition of human WNK1 assessed as residual activity at 1 uM using MBP as substrate by [gamma-33P]-ATP assay relative to control
[18] = molecular target: Interleukin-1 receptor-associated kinase 4 (Homo sapiens) (UniProt Q9NWZ3); assay: Inhibition of human IRAK4 assessed as residual activity at 1 uM using MBP as substrate by [gamma-33P]-ATP assay relative to control
[19] = molecular target: CDK9/Cyclin-T2 (Homo sapiens) (UniProt P50750+O60583); assay: Inhibition of human CDK9/cyclin-T2 assessed as residual activity at 1 uM using KTFCGTPEYLAPEVRREPRILSEEEQEMFRDFDYIADWC as substrate by [gamma-33P]-ATP assay relative to control; format: protein-complex assay
[20] = molecular target: Tyrosine-protein kinase ZAP-70 (Homo sapiens) (UniProt P43403); assay: Inhibition of human ZAP70 assessed as residual activity at 1 uM using poly[Glu:Tyr] (4:1) as substrate by [gamma-33P]-ATP assay relative to control
Chain of Tyrosine-protein kinase ZAP-70 (Homo sapiens) (P43403 whole entry): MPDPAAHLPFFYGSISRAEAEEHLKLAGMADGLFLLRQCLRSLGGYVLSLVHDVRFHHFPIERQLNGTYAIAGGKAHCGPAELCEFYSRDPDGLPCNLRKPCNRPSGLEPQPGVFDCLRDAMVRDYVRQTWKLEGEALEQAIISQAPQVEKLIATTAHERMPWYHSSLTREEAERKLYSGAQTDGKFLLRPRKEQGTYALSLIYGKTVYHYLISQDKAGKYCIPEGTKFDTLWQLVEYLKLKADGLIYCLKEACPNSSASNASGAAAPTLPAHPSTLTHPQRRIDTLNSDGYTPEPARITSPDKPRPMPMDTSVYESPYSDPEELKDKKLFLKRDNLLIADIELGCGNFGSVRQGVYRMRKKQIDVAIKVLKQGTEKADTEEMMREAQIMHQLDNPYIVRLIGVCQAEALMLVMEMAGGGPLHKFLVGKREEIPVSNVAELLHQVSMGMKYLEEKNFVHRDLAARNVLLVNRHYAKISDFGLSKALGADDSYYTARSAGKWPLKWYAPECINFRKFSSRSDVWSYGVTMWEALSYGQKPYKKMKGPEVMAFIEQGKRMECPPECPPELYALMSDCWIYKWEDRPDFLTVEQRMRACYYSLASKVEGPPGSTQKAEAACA

[21] = molecular target: Serine/threonine-protein kinase 26 (Homo sapiens) (UniProt Q9P289); assay: Inhibition of human MST4 assessed as residual activity at 1 uM using MBP as substrate by [gamma-33P]-ATP assay relative to control
[22] = molecular target: Aurora kinase C (Homo sapiens) (UniProt Q9UQB9); assay: Inhibition of human Aurora C assessed as residual activity at 1 uM using [H-LRRASLG] as substrate by [gamma-33P]-ATP assay relative to control
[23] = molecular target: Serine/threonine-protein kinase tousled-like 2 (Homo sapiens) (UniProt Q86UE8); assay: Inhibition of human TLK2 assessed as residual activity at 1 uM using casein as substrate by [gamma-33P]-ATP assay relative to control
[24] = molecular target: Serine/threonine-protein kinase 33 (Homo sapiens) (UniProt Q9BYT3); assay: Inhibition of human STK33 assessed as residual activity at 1 uM using MBP as substrate by [gamma-33P]-ATP assay relative to control
Chain of Serine/threonine-protein kinase 33 (Homo sapiens) (Q9BYT3 whole entry, looked up): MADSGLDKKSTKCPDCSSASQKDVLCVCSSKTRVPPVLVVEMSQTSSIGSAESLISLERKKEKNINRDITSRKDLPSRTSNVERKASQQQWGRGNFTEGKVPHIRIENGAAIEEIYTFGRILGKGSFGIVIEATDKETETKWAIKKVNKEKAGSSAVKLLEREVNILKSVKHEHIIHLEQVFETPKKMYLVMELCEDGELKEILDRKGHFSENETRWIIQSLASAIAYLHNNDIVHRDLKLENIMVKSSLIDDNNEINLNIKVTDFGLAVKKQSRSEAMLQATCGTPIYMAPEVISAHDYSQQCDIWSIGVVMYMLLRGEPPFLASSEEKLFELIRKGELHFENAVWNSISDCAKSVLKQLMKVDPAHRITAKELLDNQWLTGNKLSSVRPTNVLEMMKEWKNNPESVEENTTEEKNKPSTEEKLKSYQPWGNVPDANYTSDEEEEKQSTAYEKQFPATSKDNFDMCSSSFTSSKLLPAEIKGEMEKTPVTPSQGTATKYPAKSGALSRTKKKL

Compound: C(=C\c1ccccc1)/C[N+]12CN3CN(CN(C3)C1)C2
- Activity [1]: 94.8 to 94.9%
- Activity [2]: 93 to 94.8%
- Activity [3]: 80.5 to 87.2%
- Activity [4]: 93.4 to 95.1%
- Activity [5]: 91.9 to 93.1%
- inhibition [6]: Dose-dependent effect
- Activity [7]: 93.8 to 96.3%
- Activity [8]: 88.5 to 88.9%
- Activity [9]: 122%
- Activity [10]: 88.4 to 92.3%
- Activity [11]: 94.8 to 96%
- Activity [12]: 91.4 to 93.7%
- inhibition [13]: Dose-dependent effect
- Activity [14]: 91.7 to 94.8%
- Activity [15]: 89.2 to 89.7%
- Activity [16]: 94 to 96%
- Activity [17]: 93.6 to 94.3%
- Activity [18]: 92.1 to 96.8%
- Activity [19]: 87 to 94.5%
- Activity [20]: 94.2 to 96.3%
- Activity [21]: 90.7 to 92.2%
- Activity [22]: 95.8 to 96.8%
- Activity [23]: 87.9 to 91.1%
- Activity [24]: 94.9 to 95.4%

Compound: ClC/C=C/C[N+]12CN3CN(CN(C3)C1)C2
- Activity [1]: 95.7 to 96.5%
- Activity [2]: 94.4 to 96.6%
- Activity [3]: 87.8 to 88.7%
- Activity [4]: 93.8 to 95.2%
- Activity [5]: 90.5 to 92%
- inhibition [6]: Dose-dependent effect
- Activity [7]: 94 to 94.8%
- Activity [8]: 88.2 to 88.7%
- Activity [9]: 117 to 118%
- Activity [10]: 86.9 to 92.5%
- Activity [11]: 95.7 to 96.8%
- Activity [12]: 95.9 to 96%
- inhibition [13]: Dose-dependent effect
- Activity [14]: 93.7 to 95.3%
- Activity [15]: 92.3 to 92.9%
- Activity [16]: 93 to 93.5%
- Activity [17]: 92.5 to 94.9%
- Activity [18]: 91.5 to 92.7%
- Activity [19]: 95.7 to 97.6%
- Activity [20]: 90.6 to 91.5%
- Activity [21]: 83.3 to 87.1%
- Activity [22]: 87.2 to 91.4%
- Activity [23]: 91.2 to 91.8%
- Activity [24]: 86.5 to 88.4%
